Several values for one entry are separate records, joined by “and”; a condition that tells them apart may be missing. Identical values can stand only once. Like-named read-outs stand apart in the source and are kept apart here.
Tests used:
COVID-19 WT Mpro = biological target: T1, COVID-19 WT Mpro (Severe acute respiratory syndrome coronavirus 2, UniProt P0DTD1); test: biochemical; conditions: WT Mpro 25 nM, substrate 25 μM, 30 min pre-incubation; several values in a cell = repeat determinations
T1 construct: The C-His6-tagged COVID-19 WT Mpro (NC_045512); His6 (C); host or cells: E. coli

SARS-CoV-2 replicon = test: microbe, parasite or virus in culture; format: cell-based; conditions: read-out: Replicon EC50
[1] = test system: human coronavirus (HCoV) 229E; test: microbe, parasite or virus in culture; format: cell-based, human coronavirus 229E; conditions: unidentified human coronavirus, 72 h, MRCS cells, HCoV 229E, 3 days, CellTiter Glo; read-out: 229E CPE EC50
Protocol: Test compounds were provided by the sponsor. Reference compound remdesivir was provided by WuXi AppTec. Compounds were assayed at 8 concentrations (to be defined by sponsor), in duplicate wells.
MRCS cells were obtained from the ATCC, and maintained in the Minimum Essential Medium supplemented with 10% FBS, 1% L-glutamine, 1% NEAA and 1% penicillin-streptomycin. Minimum Essential Medium supplemented with 5% FBS, 1% L-glutamine, 1% NEAA and 1% penicillin-streptomycin was used as the assay medium.
Cells were seeded in 96 well plates, in 100 μl per well of assay medium, and cultured at 37° C. and 5% CO2 overnight. Next day, test compound was diluted with assay medium and then added into the cells, 50 μl per well. Then 50 μl per well of assay medium diluted virus was added. The final volume of the cell culture was 200 μl per well. […] The CPE were measured by CellTiter Glo following the manufacturer's manual. The antiviral activity of compounds was calculated based on the protection of the virus-induced CPE at each concentration normalized by the virus control.
EC50 and CC50 values were calculated using the GraphPad Prism software using the nonlinear regression model of log(inhibitor) vs. response—Variable slope (four parameters).

[2] = Severe acute respiratory syndrome coronavirus 2, Huh-7, 24 h

Compound	IC50 (COVID-19 WT Mpro)	EC50 (SARS-CoV-2 replicon; [2])	EC50 [1]	EC50 (SARS-CoV-2 replicon)
COC(C)(C)C(=O)N[C@H](C(=O)N1C[C@H]2[C@@H]([C@H]1C(=O)N[C@H](C#N)C[C@@H]1CCNC1=O)C2(C)C)C(C)(C)C [Compound 25]	161 nM	2340 nM	2470 nM	
CC(C)(C)[C@H](NC(=O)c1ccc2cncn2c1)C(=O)N1C[C@H]2[C@@H]([C@H]1C(=O)N[C@H](C#N)C[C@@H]1CCNC1=O)C2(C)C [Compound 29]	405 nM	> 30000 nM	> 30000 nM	
CC(C)(C)[C@H](NC(=O)C1COC1)C(=O)N1C[C@H]2[C@@H]([C@H]1C(=O)N[C@H](C#N)C[C@@H]1CCNC1=O)C2(C)C [Compound 21]	161 nM	> 30000 nM	> 30000 nM	
CC(C)(C)[C@H](NC(=O)c1nc2ccccc2[nH]1)C(=O)N1C[C@H]2[C@@H]([C@H]1C(=O)N[C@H](C#N)C[C@@H]1CCNC1=O)C2(C)C [Compound 41]	7880 nM	> 30000 nM	> 30000 nM	
CC(C)(C)OC(=O)N1c2ccccc2CC1C(=O)N[C@H](C(=O)N1C[C@H]2[C@@H]([C@H]1C(=O)N[C@H](C#N)C[C@@H]1CCNC1=O)C2(C)C)C(C)(C)C (stereo partly shown) [Compound 36]	617 nM	2750 nM	15600 nM	
CC(C)(C)OC(=O)N1[C@@H](C(=O)N[C@H](C(=O)N2C[C@H]3[C@@H]([C@H]2C(=O)N[C@H](C#N)C[C@@H]2CCNC2=O)C3(C)C)C(C)(C)C)C[C@H]2CCCC[C@H]21 [Compound 37]	2150 nM	4490 nM	> 30000 nM	
CN(C)C(=O)N[C@H](C(=O)N1C[C@H]2[C@@H]([C@H]1C(=O)N[C@H](C#N)C[C@@H]1CCNC1=O)C2(C)C)C(C)(C)C [Compound 39, (1R,2S,5S)—N—((S)-1-cyano-2-((S)-2-oxopyrrolidin-3-yl)ethyl)-3-((S)-2-(3,3-dimethylureido)-3,3-dimethylbutanoyl)-6,6-dimethyl-3-azabicyclo[3.1.0]hexane-2-carboxamide]	421 nM	17600 nM	> 30000 nM	
CC(C)(C)[C@H](NC(=O)c1cc2ccccc2[nH]1)C(=O)N1C[C@H]2[C@@H]([C@H]1C(=O)N[C@H](C#N)C[C@@H]1CCNC1=O)C2(C)C [Compound 28]	728 nM	2050 nM	6120 nM	
CC(C)(C)[C@H](NC(=O)c1cn2ccccc2n1)C(=O)N1C[C@H]2[C@@H]([C@H]1C(=O)N[C@H](C#N)C[C@@H]1CCNC1=O)C2(C)C [Compound 31]	2750 nM	22200 nM	> 30000 nM	
CC(C)(C)[C@H](NC(=O)c1cc2ccccc2s1)C(=O)N1C[C@H]2[C@@H]([C@H]1C(=O)N[C@H](C#N)C[C@@H]1CCNC1=O)C2(C)C [Compound 26]	410 nM	2560 nM	5860 nM	
CC(C)(C)[C@H](NC(=O)C1CC2CCC(C1)O2)C(=O)N1C[C@H]2[C@@H]([C@H]1C(=O)N[C@H](C#N)C[C@@H]1CCNC1=O)C2(C)C (stereo partly shown) [Compound 19]	3710 nM	> 30000 nM	> 30000 nM	
CC(C)(C)[C@H](NC(=O)c1ccc2[nH]ncc2c1)C(=O)N1C[C@H]2[C@@H]([C@H]1C(=O)N[C@H](C#N)C[C@@H]1CCNC1=O)C2(C)C [Compound 24]	143 nM	3610 nM	23400 nM	
CC(C)(C)OC(=O)N1C2CCC1CC(C(=O)N[C@H](C(=O)N1C[C@H]3[C@@H]([C@H]1C(=O)N[C@H](C#N)C[C@@H]1CCNC1=O)C3(C)C)C(C)(C)C)C2 (stereo partly shown) [Compound 17]	704 nM	2640 nM	7960 nM	
CN(C(=O)OC(C)(C)C)C(C)(C)C(=O)N[C@H](C(=O)N1C[C@H]2[C@@H]([C@H]1C(=O)N[C@H](C#N)C[C@@H]1CCNC1=O)C2(C)C)C(C)(C)C [Compound 38]	9820 nM	> 30000 nM	> 30000 nM	
CC(C)(C)[C@H](NC(=O)C1Cc2ccccc2N1)C(=O)N1C[C@H]2[C@@H]([C@H]1C(=O)N[C@H](C#N)C[C@@H]1CCNC1=O)C2(C)C (stereo partly shown) [Compound 45]	385 nM	960 nM		
CC1(C)[C@@H]2[C@@H](C(=O)N[C@H](C#N)C[C@@H]3CCNC3=O)N(C(=O)[C@@H](NC(=O)C(F)(F)F)C34CC(C3)C4)C[C@@H]21 [Compound 50]	60 nM	270 nM		
CC1(C)[C@@H]2[C@@H](C(=O)N[C@@H](C[C@@H]3CCNC3=O)C(=O)c3nc4ccccc4s3)N(C(=O)[C@@H]3CCN3C(=O)C(F)(F)F)C[C@@H]21 [Compound 11]	11000 nM	25500 nM		
CC1(C)[C@@H]2[C@@H](C(=O)N[C@H](C#N)C[C@@H]3CCNC3=O)N(C(=O)[C@@H]3CCCN3C(=O)C(F)(F)F)C[C@@H]21 [Compound 5]	> 30000 nM	> 30000 nM		
CC1(C)[C@@H]2[C@@H](C(=O)N[C@H](C#N)C[C@@H]3CCNC3=O)N(C(=O)[C@@H]3CCN3C(=O)C(F)(F)F)C[C@@H]21 [Compound 6]	17300 nM	> 30000 nM		
CC(C)(C)[C@H](NC(=O)[C@@H](NC(=O)c1cnccn1)C1CCCCC1)C(=O)N1C[C@H]2[C@@H]([C@H]1C(=O)N[C@H](C#N)C[C@@H]1CCNC1=O)C2(C)C [Compound 13]	66 nM and 256 nM	1630 nM	9820 nM	1920 nM
CC(C)(C)[C@H](NC(=O)N1CCCCC1)C(=O)N1C[C@H]2[C@@H]([C@H]1C(=O)N[C@H](C#N)C[C@@H]1CCNC1=O)C2(C)C [Compound 55]	1050 nM	6040 nM		
CC(C)(C)[C@H](NC(=O)c1c(F)c(F)c(F)c(F)c1F)C(=O)N1C[C@H]2[C@@H]([C@H]1C(=O)N[C@H](C#N)C[C@@H]1CCNC1=O)C2(C)C [Compound 30]	714 nM	3560 nM	1800 nM	

Source: patent publication US11760722B2 (priority 2022, dated 2023)
